Here are results for ten molecules from patent US10301277B2, “Substituted ureas and methods of treating mental illness using the same” (ZHEJIANG JINGXIN PHARMACEUTICAL CO., LTD., priority 2016, dated 2019).

The structures appear in SMILES notation. Read-outs that look alike come from different tables or passages of the source.

The test system of series [1] is MK-801-induced schizophrenia model. The series is described as follows: MK-801-induced schizophrenia model, open field running behavior. It is filed as in vivo, Sprague-Dawley rats. As to the method: (I) Modeling of MK-801-Induced Schizophrenia in Mice
Each rat was placed in a soundproof box for 30 minutes on the day before the test to adapt. On the next day, each rat was administrated with the respective test compounds, and after 30 minutes, administrated intraperitoneally with a 0.3 mg/kg MK-801 solution at 5.0 mL/kg body weight of the rat to build a model of MK-801-induced schizophrenia in mice.
(II) Observation of Open Field Running Behavior
Mice were administered with MK-801 and then immediately placed in the soundproof box. The total distances of motion of mice within 2.5 hours were observed and recorded. Improvement rate=(total distance of model control−total distance of administration)/(total distance of model control)×100%. (III) Statistical Method
All the data was expressed with x±SD and processed by SPSS17.0 software statistical package. T-test and one-way analysis of variance were performed to compare the mean of two samples, with P<0.05 as significant difference.

The nature of series [2]: Acute toxicity assay, single oral administration. The note with it: ICR, mouse, in vivo. How it is done: Acute Toxicity Assay of the Cyclohexane Derivatives of the Present Invention
ICR mice orally administered with the compounds of the present invention were evaluated and their toxicity symptoms after oral administration were observed, as well as the mortality, which was calculated by Bliss method, thus the acute toxicities were compared.
• i. Preparation of solvent: Tween-80 of an appropriate amount was diluted with deionized water to a concentration of […] (g/v) Tween-80. • ii. […]. Administration: the test compound and solvent medium control groups (0.5% Tween-80) were administered orally.
Observations include but are not limited to: general condition, behavior, gait, eyes, mouth, nose, gastrointestinal tract, skin and hair and urogenital tract.

The target in series [3] is T1, Dopamine D2 receptor (Homo sapiens, UniProt P14416).
T1 construct: expressed in transfected cells
T1 sequence (P14416 whole entry, species assumed): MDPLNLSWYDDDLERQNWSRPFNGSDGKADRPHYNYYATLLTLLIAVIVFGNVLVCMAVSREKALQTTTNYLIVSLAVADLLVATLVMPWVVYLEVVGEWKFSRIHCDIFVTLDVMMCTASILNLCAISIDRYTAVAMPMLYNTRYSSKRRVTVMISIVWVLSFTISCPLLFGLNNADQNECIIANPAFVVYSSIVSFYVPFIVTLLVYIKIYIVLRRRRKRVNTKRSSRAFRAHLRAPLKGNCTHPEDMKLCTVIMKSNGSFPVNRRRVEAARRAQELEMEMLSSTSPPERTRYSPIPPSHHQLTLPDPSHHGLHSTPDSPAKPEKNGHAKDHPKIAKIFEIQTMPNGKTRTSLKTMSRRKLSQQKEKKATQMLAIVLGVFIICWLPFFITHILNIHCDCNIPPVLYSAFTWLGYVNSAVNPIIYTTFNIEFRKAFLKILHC
In words: Dopamine D2 receptor binding assay. The note with it: [3H] Spiperone, HEK293 cells expressing D2 receptor. As to the method:
(§1) This test was carried out according to the dopamine D2/D3 receptor binding assay and the 5-HT1A receptor binding assay described in Jiangsu Hengyi Pharmaceutical Co., Ltd.'s Patent CN 103130737 A. IC50 values were calculated from concentration-dependent reactions using a non-linear analysis program. Ki values were calculated from IC50 values by using Cheng-Prussoff equation, i.e. Ki=IC50/(1+[L]/KD), wherein Ki is the affinity of the drug to the receptor; […]; and KD is the affinity of radioligand to the receptor.
(I) Dopamine D2 Receptor Binding Assay
• a. Transfection of D2 Receptor Cells: by using calcium phosphate method, HEK293 cells were transfected with a plasmid vector containing the D2 receptor protein gene. The transfected cells were cultured in a culture solution containing G418, followed by a selection of monoclonal cell and radioligand binding assay, finally obtaining a stable cell line with stable expression of D2 receptor protein. • b. Materials for receptor binding assay: isotope ligand [^3H] Spiperone (113.0 Ci/mmol); available from Sigma-Aldrich Company; (+) spiperone, available from RBI company; GF/B glass fiber filter paper, available from Whatman Company; Tris imported and packaged; PPO, POPOP, available from Shanghai Reagent Chemical Company; lipid-soluble scintillation solution; and Beckman LS-6500 Multi-function Liquid Scintillation Counter. ii. Test Method • a. Treatment of cells: HEK-293 cells were infected with various recombinant viruses of the above genes, respectively, and the receptor proteins were highly expressed on the membranes after 48-72 hours. The cells were centrifuged at 1000 rpm for 5 minutes. The culture solution was discarded, and the cells were collected and stored in a refrigerator at −20° C. for standby. The cells were resuspended with Tris-HCl buffer (pH=7.5) when tested. • b. Competitive binding assay for receptor
The compound to be tested and the radio ligand, both 20 μL, and 160 μL of receptor proteins were added to the reaction test tubes to achieve a final concentration of 10 μmol/L for each of the compound to be tested and positive control, incubated in a water bath of 30° C. for 50 minutes and immediately transferred to an ice bath to terminate the reaction; placed on a Millipore cell sample collector, filtered by suction rapidly through a […] glass fiber filter, and eluted with 3 mL of eluent (50 mM Tris-HCl, pH7.5) for three times and dried with microwave for 5-6 minutes. The filter paper was transferred into a 0.5 mL centrifuge tube to which 500 μL of lipid-soluble scintillation solution was added, and settled away from light for more than 30 minutes. The radioactive intensity was determined by counting. The concentration of the compound was 10 μmol/L, and inhibition rate (%) of each compound to the binding of isotope ligands was calculated according to the following equation: Inhibition rate (I%)=(total binding tube cpm−compound cpm)/(total binding tube cpm—non-specific binding tube cpm)×100%. (II) Dopamine D3 Receptor Binding Assay

The target in series [4] is Dopamine D3 receptor (Homo sapiens, UniProt P35462). The series is described as follows: Dopamine D3 receptor binding assay. As to the method: as §1
Chain of Dopamine D3 receptor (P35462 whole entry, species assumed): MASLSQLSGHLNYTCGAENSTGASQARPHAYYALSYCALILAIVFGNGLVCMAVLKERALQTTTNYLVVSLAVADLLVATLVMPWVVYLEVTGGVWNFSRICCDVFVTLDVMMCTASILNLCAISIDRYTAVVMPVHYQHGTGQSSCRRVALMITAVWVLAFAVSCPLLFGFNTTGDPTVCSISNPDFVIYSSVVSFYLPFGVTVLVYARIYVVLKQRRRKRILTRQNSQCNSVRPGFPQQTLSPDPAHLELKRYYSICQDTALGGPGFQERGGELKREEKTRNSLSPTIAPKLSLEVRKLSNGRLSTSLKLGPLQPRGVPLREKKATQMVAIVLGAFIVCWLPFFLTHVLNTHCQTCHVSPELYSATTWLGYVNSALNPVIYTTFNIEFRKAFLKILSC
The concentration of the compound was 10 μmol/L, and the assay was performed according to the method described in Journal of Pharmacology and Experimental Therapeutics 2010, 333 (1): 328.

Series [5] deals with T2, 5-HT1A receptor (Homo sapiens, UniProt P08908).
T2 construct: expressed in transfected cells
T2 sequence (P08908 1-422): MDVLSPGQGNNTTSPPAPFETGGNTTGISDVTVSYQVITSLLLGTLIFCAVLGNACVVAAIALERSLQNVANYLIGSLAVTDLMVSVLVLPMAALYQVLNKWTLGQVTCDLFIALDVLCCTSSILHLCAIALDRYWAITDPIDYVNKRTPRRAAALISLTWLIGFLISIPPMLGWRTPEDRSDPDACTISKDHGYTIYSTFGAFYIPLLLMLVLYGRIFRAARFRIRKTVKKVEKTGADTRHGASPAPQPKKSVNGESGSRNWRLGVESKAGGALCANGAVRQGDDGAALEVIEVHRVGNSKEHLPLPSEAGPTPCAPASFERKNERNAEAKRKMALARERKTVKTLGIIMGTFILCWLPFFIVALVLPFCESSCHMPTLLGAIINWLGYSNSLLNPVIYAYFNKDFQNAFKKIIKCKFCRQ
In words: 5-HT1A receptor binding assay. The settings on record: [3H] 8-OH-DPAT, HEK-293 cells expressing 5-HT1A receptor. How it is done: as §1
(III) 5-HT1A Receptor Binding Assay
5-HT1A receptor isotope ligand [^3H] 8-OH-DPAT (available from PE Company); (+)5-hydroxytrptamine (available from Sigma Company); GF/B glass fiber filter paper (available from Whatman Company); lipid-soluble scintillation solution: PPO, POPOP (available from Shanghai Chemical Reagent Company); toluene (from Sinopharm Chemical Reagent Co., Ltd.); Tris imported and packaged.
Treatment of cells: HEK-293 cells which stably express the 5-HT1A receptor by gene recombination were cultured in DMEM+10% serum solution for 3-5 days and then collected with PBS. The cells were centrifuged at 3000 rpm and […] for 10 minutes. Afterwards, the supernate was discarded, and the cells were collected and stored in a refrigerator at −80° C. The cells were resuspended with D1 Binding Buffer (pH 7.4) when tested.
Inhibition rate of each compound of 10 umol/L to the binding of [^3H]8-OH-DPAT and the 5-HT1A receptor was determined by a general selection.

Setting [6] is: single oral administration, Bliss method, read-out: LD50.

One may read the LD50 as the dose at which mortality reaches 50%. `CN(C)C(=O)N[C@H]1CC[C@H](CCN2CCN(c3cccc(Cl)c3Cl)CC2)CC1` [Cariprazine, reference compound]: the “total distances of the rats within 150 minutes compared with MK-801 model control” value in series [1] (0.3 mg/kg) was “decreased”. In series [1] (dose of 0.3 mg/kg, compared with MK-801 model control), the “inhibition of high spontaneous activity of MK-801-induced rats” value is listed as “significantly inhibited”. Further, the “Total Distance within 61-150 minutes” value in series [1] (single oral administration 0.3 mg/kg, MK-801 0.3 mg/kg i.p., x ± SD) is 168.25 ± 26.9 m. For the same molecule, the “Improvement Rate” value in series [1] (single oral administration 0.3 mg/kg, versus MK-801 model control) is reported as 45.69%. The LD50 at 6 days in series [2] (po) was found to be 75.3 mg/kg.
Usually Ki stands for the dissociation constant of the complex between target and ligand, obtained from inhibition or displacement. For `CN(C)C(=O)N[C@H]1CC[C@H](CCN2CCN(c3cccc4ccsc34)CC2)CC1` [drawing 29], the Ki in series [3] is more than 1000 nM; in series [4], 0.06 nM; in series [5] it was 3.85 nM.
`CN(C)C(=O)N[C@H]1CC[C@H](CCN2CCN(c3cccc4cscc34)CC2)CC1` [drawing 30]: the Ki turned out to be 978 nM in series [3], 0.07 nM in series [4] and 3.72 nM in series [5].
For `CN(C)C(=O)N[C@H]1CC[C@H](CCN2CCN(c3cccc4sccc34)CC2)CC1` [drawing 31], in that order: more than 1000 nM, 0.06 nM and 3.96 nM.
Turning to `CN(C)C(=O)N[C@H]1CC[C@H](CCN2CCN(c3noc4cc(F)ccc34)CC2)CC1` [drawing 32], the inhibition constant (Ki) in series [3] came out at 1.3 nM; in series [4], 0.29 nM; in series [5] it was 4.12 nM.
For `CN(C)C(=O)N[C@H]1CC[C@H](CCN2CCN(c3ccc4c(Cl)noc4c3)CC2)CC1` [drawing 33], in that order: 251 nM, 0.57 nM and 22.8 nM.
For `CN(C)C(=O)N[C@H]1CC[C@H](CCN2CCC(c3noc4cc(F)ccc34)CC2)CC1` [drawing 34], in that order: more than 1000 nM, 0.15 nM and 3.65 nM.
Regarding `CN(C)C(=O)N[C@H]1CC[C@H](CCN2CCN(c3cccc4ccsc34)CC2)CC1` [drawing 35], the LD50 at 6 days in series [2] (setting [6]) amounted to 1100 mg/kg.
Still for that read-out and setting: the same measure for `CN(C)C(=O)N[C@H]1CC[C@H](CCN2CCN(c3cccc4cscc34)CC2)CC1` [drawing 36]: 1050 mg/kg; for `CN(C)C(=O)N[C@H]1CC[C@H](CCN2CCN(c3cccc4sccc34)CC2)CC1` [drawing 37]: 1080 mg/kg.
